Measurements reported in patent US8883771B2, “Bivalent inhibitors of IAP proteins and therapeutic methods using the same” (The Regents of the University of Michigan, priority 2012, dated 2014).

Legend:
[1] = target: cIAP1-BIR3 (residues 253-363) (Homo sapiens (Human), UniProt Q13490); assay: Fluorescence polarization (FP) based competitive binding assay, cIAP1-BIR3; conditions: Smac-2F probe, read-out: Binding Affinities IC50 (nM) cIAP1 Protein
Experimental: (§1) For cIAP-1 BIR3 and cIAP-2 BIR3 assays, a fluorescently labeled Smac mimetic (Smac-2F) was used as the fluorescent probe. The Kd values of Smac-2F to cIAP-1 BIR3 and cIAP-2 BIR3 were determined by monitoring the total fluorescence polarization of mixtures composed with the fluorescent probe at a fixed concentration and proteins with increasing concentrations up to full saturation. Fluorescence polarization values were measured using the Infinite M-1000 plate reader (Tecan U.S., Research Triangle Park, N.C.) in Microfluor 2 96-well, black, round-bottom plates (Thermo Scientific). To each well, 1 nM of SMAC-2F and increasing concentrations of protein were added to a final volume of 125 μl in the assay buffer (100 mM potassium phosphate, pH 7.5, 100 μg/ml bovine γ-globulin, 0.02% sodium azide, Invitrogen, with 4% DMSO). Plates were incubated at room temperature for 1-2 hours and mixed with gentle shaking to assure equilibrium. […] Equilibrium dissociation constants (Kd) were then calculated by fitting the sigmoidal dose-dependent FP increases as a function of protein concentrations using Graphpad Prism 5.0 software (Graphpad Software, San Diego, Calif.).
(§2) Mixtures of 5 μl of the tested compounds in DMSO and 120 μl of preincubated protein/tracer complex in the assay buffer (100 mM potassium phosphate, pH 7.5, 100 μg/ml bovine γ-globulin, 0.02% sodium azide, Invitrogen) were added into assay plates and incubated at room temperature for 2 hours with gentle shaking. Final concentrations of proteins and probes were 3 nM and 1 nM, 5 nM and 1 nM for assays for cIAP-1 BIR3 and cIAP-2 BIR3, respectively. […] FP values were measured as described above. IC50 values were determined by nonlinear regression fitting of the competition curves. The Ki values of competitive inhibitors were calculated using the derived equation described previously, based upon the measured IC50 values, the Kd values of the probe to different proteins, and the concentrations of the proteins and probes in the competitive assays.

[2] = target: XIAP linker-BIR2-BIR3 (residues 120-356) (Homo sapiens (Human), UniProt P98170); assay: Fluorescence polarization (FP) based competitive binding assay, XIAP linker-BIR2-BIR3; conditions: FP competitive assay, Smac-1F probe; read-out: Binding Affinities IC50 (nM) XIAP Protein
Experimental: as §1, §2
The FP-based assay for XIAP linker-BIR2-BIR3 protein was performed with the same procedures. In this assay, a bivalent fluorescently tagged peptidic Smac mimetic (Smac-1F) was used as the fluorescent probe whose Kd value to XIAP linker-BIR2-BIR3 was determined similarly through the saturation experiments. 0.01% of Triton X-100 was added in the assay buffer to achieve stable fluorescence and polarization value of the dimeric fluorescent probe. Final protein and probe concentrations utilized in the competitive assay were 3 nM and 1 nM, respectively.

[3] = target: cIAP-2 BIR3 (residues 238-349) (Homo sapiens (Human), UniProt Q13489); assay: Fluorescence polarization (FP) based competitive binding assay, cIAP-2 BIR3; conditions: FP competitive assay, Smac-2F probe; read-out: Binding Affinities IC50 (nM) cIAP2 Protein
Experimental: as §1, §2

[4] = test system: SK-OV-3 ovarian cancer cell line; assay: Inhibition of cell growth in SK-OV-3 ovarian cancer cell line; format: cell-based, human
[5] = test system: MDA-MB-231 breast cancer cell line; assay: Inhibition of cell growth in MDA-MB-231 breast cancer cell line; format: cell-based, human
MDA-MB-231 xenograft = assay: Antitumor activity in the MDA-MB-231 xenograft model in nude mice; format: in vivo; conditions: 3 mg/kg, weekly dose for 4 weeks (qwk×4, iv), start at average tumor volume 80 mm^3
Experimental: Treatments started when the tumors reached an average volume of 80 mm^3 Example 24 was given intravenously, weekly dose for 4 weeks (qwk×4, iv) at 10 mg/kg. Example 2 was given weekly dose for 4 weeks (qwk×4, iv) at 3 mg/kg. Control treatment was given vehicle control. Each group has 8-10 mice and each mouse has one tumor.

[6] = Homo sapiens, SK-OV-3, SK-OV-3 ovarian cancer cell line
[7] = Homo sapiens, MDA-MB-231, MDA-MB-231 breast cancer cell line
[8] = Homo sapiens, SK-OV-3 ovarian cancer cell line
[9] = Homo sapiens, MDA-MB-231 breast cancer cell line

Row | SMILES | IC50 [1] | IC50 [2] | IC50 [3] | IC50 [4, 6] | IC50 [5, 7] | IC50 [4, 8] | IC50 [5, 9] | Antitumor activity (mean tumor volume) (MDA-MB-231 xenograft) | IC50 ([4]; SK-OV-3 ovarian cancer cell line) | IC50 ([5]; MDA-MB-231 breast cancer cell line)
1 | CN[C@@H](C)C(=O)N[C@H]1CN(C(=O)Nc2ccc(Cc3ccc(NC(=O)N4CC[C@H]5CC[C@@H](C(=O)N[C@@H]6CCCc7ccccc76)N5C(=O)[C@@H](NC(=O)[C@H](C)NC)C4)cc3)cc2)CC[C@H]2CCC(C(=O)N[C@@H]3CCCc4ccccc43)N2C1=O (stereo partly drawn) [Example 12] | < 100 nM | < 10 nM | < 100 nM | < 100 nM | < 100 nM |  |  |  |  | 
2 | CN[C@@H](C)C(=O)N[C@H]1CN(S(=O)(=O)CCCCCCS(=O)(=O)N2CC[C@H]3CC[C@@H](C(=O)NC(c4ccccc4)c4ccccc4)N3C(=O)[C@@H](NC(=O)[C@H](C)NC)C2)CC[C@H]2CCC(C(=O)NC(c3ccccc3)c3ccccc3)N2C1=O (stereo partly drawn) [Example 9] | < 100 nM | < 10 nM | < 100 nM |  |  | < 1000 nM | < 1000 nM |  |  | 
3 | CN[C@@H](C)C(=O)N[C@H]1CN(C(=O)NCCCCCCNC(=O)N2CC[C@H]3CC[C@@H](C(=O)NC(c4ccccc4)c4ccccc4)N3C(=O)[C@@H](NC(=O)[C@H](C)NC)C2)CC[C@H]2CCC(C(=O)NC(c3ccccc3)c3ccccc3)N2C1=O (stereo partly drawn) [Example 13] | < 300 nM | < 30 nM | < 300 nM | < 100 nM | < 100 nM |  |  |  |  | 
4 | CN[C@@H](C)C(=O)N[C@H]1CN(S(=O)(=O)CCC/C=C/CCCS(=O)(=O)N2CC[C@H]3CC[C@@H](C(=O)NC(c4ccccc4)c4ccccc4)N3C(=O)[C@@H](NC(=O)[C@H](C)NC)C2)CC[C@H]2CCC(C(=O)NC(c3ccccc3)c3ccccc3)N2C1=O (stereo partly drawn) [Example 8] | < 100 nM | < 10 nM | < 100 nM |  |  | < 1000 nM | < 1000 nM |  |  | 
5 | CN[C@@H](C)C(=O)N[C@H]1CN(C(=O)Nc2ccc(NC(=O)N3CC[C@H]4CC[C@@H](C(=O)NC(c5ccccc5)c5ccccc5)N4C(=O)[C@@H](NC(=O)[C@H](C)NC)C3)cc2)CC[C@H]2CCC(C(=O)NC(c3ccccc3)c3ccccc3)N2C1=O (stereo partly drawn) [Example 2] |  |  |  |  |  |  |  | Tumor regression was achieved |  | 
6 | CN[C@@H](C)C(=O)N[C@H]1CN(C(=O)Nc2ccc(NC(=O)N3CC[C@H]4CC[C@@H](C(=O)N[C@@H]5CCC[C@H]5c5ccccc5)N4C(=O)[C@@H](NC(=O)[C@H](C)NC)C3)cc2)CC[C@H]2CC[C@@H](C(=O)N[C@@H]3CCC[C@H]3c3ccccc3)N2C1=O [Example 32] | < 3000 nM | < 3000 nM | < 3000 nM | < 1000 nM | < 1000 nM |  |  |  |  | 
7 | CN[C@@H](C)C(=O)N[C@H]1CN(C(=O)NCCCCCCNC(=O)N2CC[C@H]3CC[C@@H](C(=O)N[C@H]4CCCC[C@@H]4c4ccccc4)N3C(=O)[C@@H](NC(=O)[C@H](C)NC)C2)CC[C@H]2CCC(C(=O)N[C@H]3CCCC[C@@H]3c3ccccc3)N2C1=O (stereo in doubt) [Example 40] | < 3000 nM | < 3000 nM | < 3000 nM |  |  |  |  |  | < 10000 nM | < 10000 nM
8 | CN[C@@H](C)C(=O)N[C@H]1CN(C(=O)NCCCCCCCCNC(=O)N2CC[C@H]3CC[C@@H](C(=O)N[C@@H]4CCCc5ccccc54)N3C(=O)[C@@H](NC(=O)[C@H](C)NC)C2)CC[C@H]2CCC(C(=O)N[C@@H]3CCCc4ccccc43)N2C1=O (stereo partly drawn) [Example 4] | < 100 nM | < 10 nM | < 100 nM |  |  | < 100 nM | < 100 nM |  |  | 
9 | CN[C@@H](C)C(=O)N[C@H]1CN(C(=O)Nc2ccc(NC(=O)N3CC[C@H]4CC[C@@H](C(=O)N[C@@H]5CCC[C@@H]5c5ccccc5)N4C(=O)[C@@H](NC(=O)[C@H](C)NC)C3)cc2)CC[C@H]2CC[C@@H](C(=O)N[C@@H]3CCC[C@@H]3c3ccccc3)N2C1=O [Example 34] | < 1000 nM | < 1000 nM | < 1000 nM | < 100 nM | < 100 nM |  |  |  |  | 
10 | CN[C@@H](C)C(=O)N[C@H]1CN(C(=O)NCCCCCCNC(=O)N2CC[C@H]3CC[C@@H](C(=O)N[C@@H]4CCC[C@@H]4c4ccccc4)N3C(=O)[C@@H](NC(=O)[C@H](C)NC)C2)CC[C@H]2CCC(C(=O)N[C@@H]3CCC[C@@H]3c3ccccc3)N2C1=O (stereo in doubt) [Example 44] | < 1000 nM | < 1000 nM | < 3000 nM | < 1000 nM | < 1000 nM |  |  |  |  | 
11 | CN[C@@H](C)C(=O)N[C@H]1CN(C(=O)Nc2ccc(NC(=O)N3CC[C@H]4CC[C@@H](C(=O)N[C@H]5CCC[C@@H]5c5ccccc5)N4C(=O)[C@@H](NC(=O)[C@H](C)NC)C3)cc2)CC[C@H]2CC[C@@H](C(=O)N[C@H]3CCC[C@@H]3c3ccccc3)N2C1=O [Example 33] | < 3000 nM | < 3000 nM | < 3000 nM | < 1000 nM | < 1000 nM |  |  |  |  | 
12 | CN[C@@H](C)C(=O)N[C@H]1CN(C(=O)Nc2ccc(NC(=O)N3CC[C@H]4CC[C@@H](C(=O)N[C@H]5C[C@@H]5c5ccc(F)cc5)N4C(=O)[C@@H](NC(=O)[C@H](C)NC)C3)cc2)CC[C@H]2CC[C@@H](C(=O)N[C@H]3C[C@@H]3c3ccc(F)cc3)N2C1=O [Example 29] | < 1000 nM | < 1000 nM | < 1000 nM | < 5000 nM | < 5000 nM |  |  |  |  | 
13 | CN[C@@H](C)C(=O)N[C@H]1CN(S(=O)(=O)CCCCCCCCS(=O)(=O)N2CC[C@H]3CC[C@@H](C(=O)NC(c4ccccc4)c4ccccc4)N3C(=O)[C@@H](NC(=O)[C@H](C)NC)C2)CC[C@H]2CCC(C(=O)NC(c3ccccc3)c3ccccc3)N2C1=O (stereo partly drawn) [Example 10] | < 100 nM | < 10 nM | < 100 nM |  |  | < 1000 nM | < 1000 nM |  |  | 
14 | CN[C@@H](C)C(=O)N[C@H]1CN(S(=O)(=O)CC/C=C/CCS(=O)(=O)N2CC[C@H]3CC[C@@H](C(=O)NC(c4ccccc4)c4ccccc4)N3C(=O)[C@@H](NC(=O)[C@H](C)NC)C2)CC[C@H]2CCC(C(=O)NC(c3ccccc3)c3ccccc3)N2C1=O (stereo partly drawn) [Example 7] | < 300 nM | < 10 nM | < 300 nM |  |  | < 1000 nM | < 1000 nM |  |  | 
15 | CN[C@@H](C)C(=O)N[C@H]1CN(C(=O)NCCCCCCNC(=O)N2CC[C@H]3CC[C@@H](C(=O)N[C@@H]4CCC[C@H]4c4ccccc4)N3C(=O)[C@@H](NC(=O)[C@H](C)NC)C2)CC[C@H]2CCC(C(=O)N[C@@H]3CCC[C@H]3c3ccccc3)N2C1=O (stereo in doubt) [Example 43] | < 3000 nM | < 3000 nM | < 3000 nM | < 1000 nM | < 1000 nM |  |  |  |  | 
16 | CN[C@@H](C)C(=O)N[C@H]1CN(C(=O)Nc2ccc(NC(=O)N3CC[C@H]4CC[C@@H](C(=O)N[C@@H]5CCCc6ccccc65)N4C(=O)[C@@H](NC(=O)[C@H](C)NC)C3)cc2)CC[C@H]2CCC(C(=O)N[C@@H]3CCCc4ccccc43)N2C1=O (stereo partly drawn) [Example 5] | < 100 nM | < 10 nM | < 100 nM | < 100 nM | < 100 nM |  |  |  |  | 
17 | CN[C@@H](C)C(=O)N[C@H]1CN(C(=O)NCc2cccc(CNC(=O)N3CC[C@H]4CC[C@@H](C(=O)N[C@@H]5CCCc6ccccc65)N4C(=O)[C@@H](NC(=O)[C@H](C)NC)C3)c2)CC[C@H]2CCC(C(=O)N[C@@H]3CCCc4ccccc43)N2C1=O (stereo partly drawn) [Example 6] | < 100 nM | < 10 nM | < 100 nM |  |  | < 100 nM | < 100 nM |  |  | 
